For 18 compounds, IC50 and EC50 results are on record in patent US11312701B2, “Formylpyridine derivative having FGFR4 inhibitory activity, preparation method therefor and use thereof” (Abbisko Therapeutics Co., Ltd., priority 2017, dated 2022).

Assay [1] has as its system Huh7 hepatocellular carcinoma cells. Kind of assay: Cell Titer Glo (CTG) cell proliferation experiment. Type of assay: cell-based. The following applies: Homo sapiens, 72 h, HuH-7 cells, 3 days; for IC50: concentration leading to absolute half growth inhibition; for EC50: concentration leading to half maximal growth inhibition. The method, then:
Cell Titer Glo (CTG) experiment was used in the present invention to evaluate the functional effects of the compounds on cell proliferation. Huh7 hepatocellular carcinoma cells (Catalog No. TChU182) from the Chinese Academy of Sciences cell bank were cultured in DMEM with high glucose (Gibco, cat. No. 1773536), 10% fetal bovine serum (Gibco, 10099-141) at 37° C., in a 5% CO2 incubator. Compound-mediated inhibition of cell proliferation/survival was assessed by quantification of cellular ATP levels using CTG reagent (Promega, #G7573). The specific experimental procedure was as follows: • 1. The cells were seeded into a tissue culture medium-treated 96-well plate (Costar #3904) at 3500 cells/well/90 μL of fresh medium; • 2. 10 μL of medium containing a compound concentration of 10 fold of its final test concentration was added; • 3. The dose effect as evaluated by a 5-fold serial dilution of the test compound, starting from 10 μM. • 4. After cells incubation for 3 days at 37° C. in a 5% CO2 atmosphere, the effect of the inhibitor on cell proliferation was quantified after adding 50 μL of CTG and testing with luminescence. • 5. The concentration of the compound (EC50) leading to half maximal growth inhibition and the concentration of compound (Absolute IC50) leading to absolute half growth inhibition were determined using a four-parameter curve fit in Graphpad Prism in a plate reader (M1000, Tecan).

Another assay deals with FGFR4 (Homo sapiens, UniProt P22455). Briefly: FGFR4 Caliper Assay (in vitro biochemical kinase analysis). The following applies: Caliper mobility shift, 65 μM ATP, 30° C. 40 minutes; read-out: Enzymatic activity FGFR4 IC50. The method, then:
I. In Vitro Biochemical Kinase Analysis of FGFR4
FGFR4 Caliper Assay was used in the present invention to determine the inhibitory activities • of the compounds against FGFR4. The specific experimental procedure was as follows: 1. The kinase reaction in the present invention was carried out in a 384-well plate, and […] of FGFR4, 65 μM of ATP and 1 μM of peptide (5 Fluo Ahx KKKKEEIYFFFG NH2) were respectively added into the following reaction system. • 2. A reaction system is a mixture solution of 50 mM HEPES, pH 7.5, 1 mM DTT, 0.02% Tween 20, 0.02% BSA, 0.6% DMSO, 10 mM beta glycerol phosphate and 10 μM sodium orthovanadate and 16 mM MgCl2. • 3. The reaction system was incubated at 30° C. for 40 minutes. • 4. The reaction was terminated by adding a stop solution (100 mM HEPES, pH 7.5, 5% DMSO, 0.1% Caliper coating reagent, 10 mM EDTA and 0.015% Brij35). • 5. The culture plate with the terminated kinase reaction was transferred to the Caliper LC 3000 workstation to read the data, the phosphorylated and unphosphorylated peptides were separated by using the Caliper microfluid migration shift technique, and the analyte was transferred by allowing a constant buffer flow through the chip, the migration of the substrate peptide was monitored by the labeled fluorescent signal, and the kinase activity was calculated by using the amount of the phosphate-based peptide formed. • 6. Finally, IC50 values were determined by non-linear regression analysis of percent inhibition at different compound concentrations. II. FGFR4 Cell Proliferation Experiment

The term IC50 denotes the concentration that inhibits the measured activity by half. A word on the EC50: it is the concentration needed to bring the measured effect to its halfway point.

Sequence of FGFR4 (P22455 22-802): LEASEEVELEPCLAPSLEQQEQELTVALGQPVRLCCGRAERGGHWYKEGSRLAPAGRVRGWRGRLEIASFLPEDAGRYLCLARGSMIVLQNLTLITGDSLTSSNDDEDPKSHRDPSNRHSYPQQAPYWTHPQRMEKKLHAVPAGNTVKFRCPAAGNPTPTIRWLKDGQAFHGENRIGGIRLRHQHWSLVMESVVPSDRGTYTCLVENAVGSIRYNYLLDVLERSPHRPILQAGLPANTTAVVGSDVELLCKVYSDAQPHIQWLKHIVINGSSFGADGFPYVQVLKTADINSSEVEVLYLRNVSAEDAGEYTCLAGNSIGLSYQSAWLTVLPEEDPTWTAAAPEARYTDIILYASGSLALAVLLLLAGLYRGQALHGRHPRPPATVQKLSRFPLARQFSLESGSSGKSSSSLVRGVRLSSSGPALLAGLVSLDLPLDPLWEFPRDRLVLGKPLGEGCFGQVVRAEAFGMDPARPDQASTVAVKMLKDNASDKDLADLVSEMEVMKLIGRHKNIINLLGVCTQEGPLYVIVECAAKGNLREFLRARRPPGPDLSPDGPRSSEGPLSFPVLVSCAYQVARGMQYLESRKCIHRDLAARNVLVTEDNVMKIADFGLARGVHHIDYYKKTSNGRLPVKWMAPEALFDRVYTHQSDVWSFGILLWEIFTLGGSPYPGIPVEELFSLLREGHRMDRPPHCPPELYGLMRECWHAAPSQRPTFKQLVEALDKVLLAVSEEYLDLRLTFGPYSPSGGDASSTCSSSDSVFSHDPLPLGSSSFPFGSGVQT

In the case of `CN1CCN(Cc2ccc(N(C)C(=O)Nc3cc(N4CCC5(CCOC5)C4)c(C#N)cn3)nc2C=O)C(=O)C1` (centres unmarked) [Example 30, 3-(5-cyano-4-(2-oxa-7-azaspiro[4.4]nonan-7-yl)pyridin-2-yl)-1-(6-formyl-5-((4-methyl-2-oxopiperazin-1-yl)methyl)pyridin-2-yl)-1-methylurea], in assay [1], the midpoint of inhibition, the IC50, lay at 0.207 µM and a half-maximal response (EC50) required 0.0768 µM.

Take `CN1CCN(Cc2ccc(N(C)C(=O)Nc3cc(NCCF)c(C#N)cn3)nc2C=O)C(=O)C1` [Example 2, 3-(5-cyano-4-((2-fluoroethyl)amino)pyridin-2-yl)-1-(6-formyl-5-((4-methyl-2-oxopiperazin-1-yl)methyl)pyridin-2-yl)-1-methylurea]: the IC50 at FGFR4 came out at 0.008 µM.

`CCN(C(=O)Nc1cc(NC2CC2)c(C#N)cn1)c1ccc(CN2CCN(C)CC2=O)c(C=O)n1` [Example 51, 3-(5-cyano-4-(cyclopropylamino)pyridin-2-yl)-1-ethyl-1-(6-formyl-5-((4-methyl-2-oxopiperazin-1-yl)methyl)pyridin-2-yl)urea]: the IC50 on FGFR4 is 0.0014 µM. In assay [1], the IC50 stood at 0.065 µM and the EC50 was 0.027 µM.

With `COC1CC(Nc2cc(NC(=O)N(C)c3ccc(CN4CCN(C)CC4=O)c(C=O)n3)ncc2C#N)C1` (centres unmarked) [Example 8, 3-(5-cyano-4-((3-methoxycyclobutyl)amino)pyridin-2-yl)-1-(6-formyl-5-((4-methyl-2-oxopiperazin-1-yl)methyl)pyridin-2-yl)-1-methylurea], the IC50 at FGFR4 worked out at 0.0058 µM.

Turning to `COC1(C)CN(c2cc(NC(=O)N(C)c3ccc(CN4CCN(C)CC4=O)c(C=O)n3)ncc2C#N)C1` [Example 11, 3-(5-cyano-4-(3-methoxy-3methylazetidin-1-yl)pyridin-2-yl)-1-(6-formyl-5-((4-methyl-2-oxopiperazin-1-yl)methyl)pyridin-2-yl)-1-methylurea], the IC50 on FGFR4 was found to be 0.0069 µM; in assay [1], 0.177 µM. In addition, a half-maximal effect in assay [1] (EC50) was put at 0.0822 µM.

For the compound `CN1CCN(Cc2ccc(N(C)C(=O)Nc3cc(OCC4CC4)c(C#N)cn3)nc2C=O)C(=O)C1` [Example 39, 3-(5-cyano-4-(cyclopropylmethoxy)pyridin-2-yl)-1-(6-formyl-5-((4-methyl-2-oxopiperazin-1-yl)methyl)pyridin-2-yl)-1-methylurea], the IC50 on FGFR4 came out at 0.0034 µM; in assay [1], 0.101 µM. This compound also showed an EC50 in assay [1] of 0.0488 µM.

Consider `N#Cc1cnc(NC(=O)C2(c3cccc(C=O)n3)CC2)cc1NC1CC1` [Example 52, N-(5-cyano-4-(cyclopropylamino)pyridin-2-yl)-1-(6-formylpyridin-2-yl)cyclopropane-1-carboxamide], for which the IC50 at FGFR4 came out at 0.0163 µM.

As for `CN1CCN(Cc2ccc(N(C)C(=O)Nc3cc(NCC4CC4)c(C#N)cn3)nc2C=O)C(=O)C1` [Example 4, 3-(5-cyano-4-((cyclopropylmethyl)amino)pyridin-2-yl)-1-(6-formyl-5-((4-methyl-2-oxopiperazin-1-yl)methyl)pyridin-2-yl)-1-methylurea], the IC50 on FGFR4 was determined as 0.0038 µM; in assay [1], 0.0774 µM. The compound further showed an EC50 in assay [1] of 0.0256 µM.

With `COC1CCN(c2cc(NC(=O)N(C)c3ccc(CN4CCN(C)CC4=O)c(C=O)n3)ncc2C#N)C1` (centres unmarked) [Example 17, 3-(5-cyano-4-(3-methoxypyrrolidin-1-yl)pyridin-2-yl)-1-(6-formyl-5-((4-methyl-2-oxopiperazin-1-yl)methyl)pyridin-2-yl)-1-methylurea], the results for the IC50 (on FGFR4; in assay [1]) were 0.0065 µM and 0.0849 µM, respectively. Besides, the EC50 in assay [1] is 0.0381 µM.

In the case of `CN1CCN(Cc2ccc(N(C)C(=O)Nc3cc(NC4CCOC4)c(C#N)cn3)nc2C=O)C(=O)C1` (centres unmarked) [Example 14, 3-(5-cyano-4-((tetrahydrofuran-3-yl)amino)pyridin-2-yl)-1-(6-formyl-5-((4-methyl-2-oxopiperazin-1-yl)methyl)pyridin-2-yl)-1-methylurea], the IC50 at FGFR4 came to 0.0057 µM. In assay [1], this compound yielded an IC50 of 0.0574 µM and an EC50 of 0.0201 µM.

Consider `CN1CCN(Cc2ccc(N(C)C(=O)Nc3cc(NC4CC4)c(C#N)cn3)nc2C=O)C(=O)C1` [Example 1, 3-(5-cyano-4-(cyclopropylamino)pyridin-2-yl)-1-(6-formyl-5-((4-methyl-2-oxopiperazin-1-yl)methyl)pyridin-2-yl)-1-methylurea], for which the IC50 on FGFR4 came out at 0.002 µM. In assay [1], this compound displayed an IC50 of 0.0262 µM and an EC50 of 0.0083 µM.

As for `CN1CCN(Cc2ccc(N(C)C(=O)Nc3cc(NC4CC4)c(I)cn3)nc2C=O)C(=O)C1` [Example 56, 3-(4-(cyclopropylamino)-5-iodopyridin-2-yl)-1-(6-formyl-5-((4-methyl-2-oxopiperazin-1-yl)methyl)pyridin-2-yl)-1-methylurea], the IC50 on FGFR4 stood at 0.0081 µM. In assay [1], this compound returned an IC50 of 0.223 µM and an EC50 of 0.093 µM.

Consider `CN1CCN(Cc2ccc(N(C)C(=O)Nc3cc(NCC4CCCO4)c(C#N)cn3)nc2C=O)C(=O)C1` (centres unmarked) [Example 21, 3-(5-cyano-4-(((tetrahydrofuran-2-yl)methyl)amino)pyridin-2-yl)-1-(6-formyl-5-((4-methyl-2-oxopiperazin-1-yl)methyl)pyridin-2-yl)-1-methylurea], for which the IC50 at FGFR4 is 0.008 µM. Further, in assay [1], the IC50 was 0.0554 µM and the response was half-maximal at 0.0227 µM (EC50).

For `CN1CCN(Cc2ccc(N(C)C(=O)Nc3cc(NC4CC(F)(F)C4)c(C#N)cn3)nc2C=O)C(=O)C1` [Example 7, 3-(5-cyano-4-((3,3-difluorocyclobutyl)amino)pyridin-2-yl)-1-(6-formyl-5-((4-methyl-2-oxopiperazin-1-yl)methyl)pyridin-2-yl)-1-methylurea], at FGFR4, the IC50 stood at 0.0028 µM. Besides, in assay [1], the IC50 is 0.0632 µM and the EC50 came out at 0.0204 µM.

Consider `CC(C)Sc1cc(NC(=O)N(C)c2ccc(CN3CCN(C)CC3=O)c(C=O)n2)ncc1C#N` [Example 34, 3-(5-cyano-4-(isopropylthio)pyridin-2-yl)-1-(6-formyl-5-((4-methyl-2-oxopiperazin-1-yl)methyl)pyridin-2-yl)-1-methylurea], for which the IC50 at FGFR4 was found to be 0.0029 µM. Also, in assay [1], the IC50 was 0.118 µM and the EC50 amounted to 0.0408 µM.

On to `CN1CCN(Cc2ccc(N(C)C(=O)Nc3cc(NC4CCC(F)(F)C4)c(C#N)cn3)nc2C=O)C(=O)C1` (centres unmarked) [Example 15, 3-(5-cyano-4-((3,3-difluorocyclopentyl)amino)pyridin-2-yl)-1-(6-formyl-5-((4-methyl-2-oxopiperazin-1-yl)methyl)pyridin-2-yl)-1-methylurea], for which the IC50 on FGFR4 is 0.0023 µM; in assay [1] it was 0.0486 µM. Also, the EC50 in assay [1] came out at 0.0193 µM.

On to `COCCOc1cc(NC(=O)N(C)c2ccc(CN3CCN(C)CC3=O)c(C=O)n2)ncc1C#N` [Example 36, 3-(5-cyano-4-(2-methoxyethoxy)pyridin-2-yl)-1-(6-formyl-5-((4-methyl-2-oxopiperazin-1-yl)methyl)pyridin-2-yl)-1-methylurea], for which the IC50 stood at 0.0171 µM at FGFR4 and 0.41 µM in assay [1]. Moreover, the EC50 in assay [1] amounted to 0.191 µM.

With `CN1CCN(Cc2ccc(N(C)C(=O)Nc3cc(N4CCOCC4)c(C#N)cn3)nc2C=O)C(=O)C1` [Example 24, 3-(5-cyano-4-morpholinopyridin-2-yl)-1-(6-formyl-5-((4-methyl-2-oxopiperazin-1-yl)methyl)pyridin-2-yl)-1-methylurea], the IC50 came to 0.0522 µM at FGFR4 and 1.8 µM in assay [1]. Besides, in assay [1], the EC50 amounted to 1.08 µM.
